According to the supplement of paper PMC8882468:

tested on: HCI-012 (organoid from a breast cancer xenograft); test: CTG-3D luminescence at 96 h relative to day-0 seeding control (ratio to day 0); higher = more growth / less cytotoxicity; PDxO 3D drug screen, 96 h, CTG-3D normalised to day-0 seeding control.; settings: 12.5 pM; days in culture: 143

SMILES	CTG-3D luminescence at 96 h
C[C@@H]1COCCN1c1cc(C2([S@](C)(=N)=O)CC2)nc(-c2cc[nH]c3nccc2-3)n1 [ceralasertib]	2.09
CCN1CCN(Cc2ccc(Nc3ncc(F)c(-c4cc(F)c5nc(C)n(C(C)C)c5c4)n3)nc2)CC1 [abemaciclib]	2.22
NC1(C(=O)N[C@@H](CCO)c2ccc(Cl)cc2)CCN(c2nc[nH]c3nccc2-3)CC1 [capivasertib]	2.02
CC(C)n1nc(-c2ccc3oc(N)nc3c2)c2c(N)ncnc21 [sapanisertib]	1.67
O=C(c1ccc(F)c(F)c1Nc1ccc(I)cc1F)N1CC(O)([C@@H]2CCCCN2)C1 [cobimetinib]	1.73
C[C@H](NC(=O)CCC(F)(F)F)C(=O)N[C@@H]1C(=O)N(CCO)c2ncccc2-c2ccccc21 [crenigacestat]	1.9
Cc1cc(Nc2ncc(Cl)c(Nc3ccccc3S(=O)(=O)C(C)C)n2)c(OC(C)C)cc1C1CCNCC1 [ceritinib]	2.17
CS(=O)(=O)c1ccc(C(=O)Nc2ccc(Cl)c(-c3ccccn3)c2)c(Cl)c1 [vismodegib]	2.03
NC(=O)c1cccc2cn(-c3ccc([C@@H]4CCCNC4)cc3)nc12 [niraparib]	2.27

same assay, conditions: 12.5 pM; days in culture: 162

SMILES	CTG-3D luminescence at 96 h
C[C@@H]1COCCN1c1cc(C2([S@](C)(=N)=O)CC2)nc(-c2cc[nH]c3nccc2-3)n1 [ceralasertib]	2.52
CCN1CCN(Cc2ccc(Nc3ncc(F)c(-c4cc(F)c5nc(C)n(C(C)C)c5c4)n3)nc2)CC1 [abemaciclib]	2.88
NC1(C(=O)N[C@@H](CCO)c2ccc(Cl)cc2)CCN(c2nc[nH]c3nccc2-3)CC1 [capivasertib]	2.5
CC(C)n1nc(-c2ccc3oc(N)nc3c2)c2c(N)ncnc21 [sapanisertib]	2.13
O=C(c1ccc(F)c(F)c1Nc1ccc(I)cc1F)N1CC(O)([C@@H]2CCCCN2)C1 [cobimetinib]	2.44
C[C@H](NC(=O)CCC(F)(F)F)C(=O)N[C@@H]1C(=O)N(CCO)c2ncccc2-c2ccccc21 [crenigacestat]	2.11
Cc1cc(Nc2ncc(Cl)c(Nc3ccccc3S(=O)(=O)C(C)C)n2)c(OC(C)C)cc1C1CCNCC1 [ceritinib]	2.32
CS(=O)(=O)c1ccc(C(=O)Nc2ccc(Cl)c(-c3ccccn3)c2)c(Cl)c1 [vismodegib]	2.64
NC(=O)c1cccc2cn(-c3ccc([C@@H]4CCCNC4)cc3)nc12 [niraparib]	2.37

same assay, conditions: 12.5 pM; days in culture: 201

SMILES	CTG-3D luminescence at 96 h
C[C@@H]1COCCN1c1cc(C2([S@](C)(=N)=O)CC2)nc(-c2cc[nH]c3nccc2-3)n1 [ceralasertib]	2.62
CCN1CCN(Cc2ccc(Nc3ncc(F)c(-c4cc(F)c5nc(C)n(C(C)C)c5c4)n3)nc2)CC1 [abemaciclib]	2.81
NC1(C(=O)N[C@@H](CCO)c2ccc(Cl)cc2)CCN(c2nc[nH]c3nccc2-3)CC1 [capivasertib]	2.73
CC(C)n1nc(-c2ccc3oc(N)nc3c2)c2c(N)ncnc21 [sapanisertib]	2.95
O=C(c1ccc(F)c(F)c1Nc1ccc(I)cc1F)N1CC(O)([C@@H]2CCCCN2)C1 [cobimetinib]	2.69
C[C@H](NC(=O)CCC(F)(F)F)C(=O)N[C@@H]1C(=O)N(CCO)c2ncccc2-c2ccccc21 [crenigacestat]	2.55
Cc1cc(Nc2ncc(Cl)c(Nc3ccccc3S(=O)(=O)C(C)C)n2)c(OC(C)C)cc1C1CCNCC1 [ceritinib]	2.62
CS(=O)(=O)c1ccc(C(=O)Nc2ccc(Cl)c(-c3ccccn3)c2)c(Cl)c1 [vismodegib]	2.82
NC(=O)c1cccc2cn(-c3ccc([C@@H]4CCCNC4)cc3)nc12 [niraparib]	3.14

same assay, conditions: 0.00025 µM; days in culture: 143

SMILES	CTG-3D luminescence at 96 h
C[C@@H]1COCCN1c1cc(C2([S@](C)(=N)=O)CC2)nc(-c2cc[nH]c3nccc2-3)n1 [ceralasertib]	2.04
CCN1CCN(Cc2ccc(Nc3ncc(F)c(-c4cc(F)c5nc(C)n(C(C)C)c5c4)n3)nc2)CC1 [abemaciclib]	2.41
NC1(C(=O)N[C@@H](CCO)c2ccc(Cl)cc2)CCN(c2nc[nH]c3nccc2-3)CC1 [capivasertib]	1.95
CC(C)n1nc(-c2ccc3oc(N)nc3c2)c2c(N)ncnc21 [sapanisertib]	2.13
O=C(c1ccc(F)c(F)c1Nc1ccc(I)cc1F)N1CC(O)([C@@H]2CCCCN2)C1 [cobimetinib]	1.86
C[C@H](NC(=O)CCC(F)(F)F)C(=O)N[C@@H]1C(=O)N(CCO)c2ncccc2-c2ccccc21 [crenigacestat]	1.85
Cc1cc(Nc2ncc(Cl)c(Nc3ccccc3S(=O)(=O)C(C)C)n2)c(OC(C)C)cc1C1CCNCC1 [ceritinib]	1.8
CS(=O)(=O)c1ccc(C(=O)Nc2ccc(Cl)c(-c3ccccn3)c2)c(Cl)c1 [vismodegib]	2.38
NC(=O)c1cccc2cn(-c3ccc([C@@H]4CCCNC4)cc3)nc12 [niraparib]	2.44
